Patent publication US9944598B2, “Mono- or di-substituted indole derivatives as dengue viral replication inhibitors” (priority 2014, dated 2018)

Legend:
in vitro = assay type: cell-based; settings: African green monkey, CC50
Method: (§1) In parallel, the toxicity of the compounds was assessed on the same plates. Once the read-out for the eGFP signal was done, 10 μL of resazurin, a cell viability stain, was added to all wells of the 384-well plates. The resazurin assay is based on the reduction of the blue resazurin by NADH, produced by the cells, into the highly fluorescent product, resorufin. The formation of pink fluorescent resorufin is directly related to the number of viable cells in the well. The plates were incubated for an additional 5 hours in a fully humidified incubator (37° C., 5% CO2). Next, the plates were measured on an Infinite reader (Tecan) using an excitation wavelength of 530 nm. The half maximal cytotoxic concentration (CC50) was also determined, defined as the concentration required to reduce the resazurin conversion by 50% compared to that of the cell control wells (Table 1). Finally, the selectivity index (SI) is determined for the compounds, which is calculated as followed: SI=CC50/EC50.

[1] = test system: DENV-2 16681 strain labeled with eGFP; assay: DENV-2 antiviral assay (eGFP fluorescence, Vero cells); assay type: cell-based, Dengue virus; settings: DENV-2 16681 eGFP, MOI 0.5, 3 days
Method: The antiviral activity of all the compounds of the invention was tested against DENV-2 16681 strain which was labeled with enhanced green fluorescent protein (eGPF). The culture medium consists of minimal essential medium supplemented with 2% of heat-inactivated fetal calf serum, 0.04% gentamycin (50 mg/mL) and 2 mM of L-glutamine. Vero cells, obtained from ECACC, were suspended in culture medium and 25 μL was added to 384-well plates (2500 cells/well), which already contain the antiviral compounds. Typically, these plates contain a 4-fold serial dilution of 9 dilution steps of the test compound at 200 times the final concentration in 100% DMSO (200 nL). In addition, each compound concentration is tested in quadruplicate (final concentration range: 25 μM-0.00038 μM). Finally, each plate contains wells which are assigned as virus controls (containing cells and virus in the absence of compound), cell controls (containing cells in the absence of virus and compound) and medium controls (containing medium in the absence of cells, virus and compounds). To the wells assigned as medium control, 25 μL of culture medium was added instead of Vero cells. Once the cells were added to the plates, the plates were incubated for 30 minutes at room temperature to allow the cells to distribute evenly within the wells. Next, the plates were incubated in a fully humidified incubator (37° C., 5% CO2) until the next day. Then, DENV-2 strain 16681, labeled with eGFP, was added at a multiplicity of infection (MOI) of 0.5. Therefore, 15 μL of virus suspension was added to all the wells containing test compound and to the wells assigned as virus control. In parallel, 15 μL of culture medium was added to the medium and cell controls. Next, the plates were incubated for 3 days in a fully humidified incubator (37° C., 5% CO2). At the day of the read out, the eGFP fluorescence was measured using an automated fluorescence microscope at 488 nm (blue laser). Using an in-house LIMS system, inhibition dose response curves for each compound were calculated and the half maximal effective concentration (EC50) was determined. Therefore, the percent inhibition (I) for every test concentration is calculated using the following formula: I=100*(ST−SCC)/(SVC−SCC); ST, SCC and SVC are the amount of eGFP signal in the test compound, cell control and virus control wells, respectively. The EC50 represents the concentration of a compound at which the virus replication is inhibited with 50%, as measured by a 50% reduction of the eGFP fluorescent intensity compared to the virus control. The EC50 is calculated using linear interpolation (Table 1).

Vero cells = assay: in vitro; assay type: cell-based; settings: African green monkey
Method: as §1

[2] = Dengue virus, DENV2, Vero, 72 h

Compound | CC50 (in vitro) | EC50 [1, 2] | melting point | CC50 (Vero cells) | EC50 [1]
COc1cc(NC(C(=O)c2c[nH]c3cc(F)ccc23)c2ccc(Cl)cc2OC)cc(OCCO)c1 (racemic) [Compound 1, 2-(4-chloro-2-methoxyphenyl)-1-(6-fluoro-1H-indol-3-yl)-2-((3-(2-hydroxyethoxy)-5-methoxyphenyl)amino)ethanone] | 6200 nM | 3 nM |  |  | 
COc1cc(NC(C(=O)c2c[nH]c3c(C)c(Cl)ccc23)c2ccc(Cl)cc2OC)cc(OCCO)c1 (racemic) [Compound 3, 2-(4-chloro-2-methoxyphenyl)-1-(6-chloro-7-methyl-1H-indol-3-yl)-2-((3-(2-hydroxyethoxy)-5-methoxyphenyl)amino)ethanone] | 5500 nM | 0.72 nM | 220 °C |  | 
COc1cc(NC(C(=O)c2c[nH]c3cc(Cl)ccc23)c2ccc(Cl)cc2OC)cc(OCCO)c1 (racemic) [Compound 4, 1-(6-chloro-1H-indol-3-yl)-2-(4-chloro-2-methoxyphenyl)-2-((3-(2-hydroxyethoxy)-5-methoxyphenyl)amino)ethanone] | 6300 nM | 1.4 nM | 154 °C |  | 
COc1cc(NC(C(=O)c2c[nH]c3cc(OC)ccc23)c2ccc(Cl)cc2OC)cc(OCCO)c1 (racemic) [Compound 5, 2-(4-chloro-2-methoxyphenyl)-2-((3-(2-hydroxyethoxy)-5-methoxyphenyl)amino)-1-(6-methoxy-1H-indol-3-yl)ethanone] | 6500 nM | 2.3 nM |  |  | 
COc1cc(NC(C(=O)c2c[nH]c3cc(OC)c(C)cc23)c2ccc(Cl)cc2OC)cc(OCCO)c1 (racemic) [Compound 6, 2-(4-chloro-2-methoxyphenyl)-2-((3-(2-hydroxyethoxy)-5-methoxyphenyl)amino)-1-(6-methoxy-5-methyl-1H-indol-3-yl)ethanone] | 5600 nM | 1.2 nM |  |  | 
COc1cc(NC(C(=O)c2c[nH]c3cc(OC)c(F)cc23)c2ccc(Cl)cc2OC)cc(OCCO)c1 (racemic) [Compound 7, 2-(4-chloro-2-methoxyphenyl)-1-(5-fluoro-6-methoxy-1H-indol-3-yl)-2-((3-(2-hydroxyethoxy)-5-methoxyphenyl)amino)ethanone] | 7400 nM | 2.6 nM |  |  | 
COc1cc(NC(C(=O)c2c[nH]c3c(C)cc(F)cc23)c2ccc(Cl)cc2OC)cc(OCCO)c1 (racemic) [Compound 8, 2-(4-chloro-2-methoxyphenyl)-1-(5-fluoro-7-methyl-1H-indol-3-yl)-2-((3-(2-hydroxyethoxy)-5-methoxyphenyl)amino)ethanone] | 8000 nM | 2.4 nM |  |  | 
COc1cc(NC(C(=O)c2c[nH]c3cc(F)c(F)cc23)c2ccc(Cl)cc2OC)cc(OCCO)c1 (racemic) [Compound 9, 2-(4-chloro-2-methoxyphenyl)-1-(5,6-difluoro-1H-indol-3-yl)-2-((3-(2-hydroxyethoxy)-5-methoxyphenyl)amino)ethanone] | 7300 nM | 2.2 nM |  |  | 
COc1cc(NC(C(=O)c2c[nH]c3c(F)c(F)ccc23)c2ccc(Cl)cc2OC)cc(OCCO)c1 (racemic) [Compound 11, 2-(4-chloro-2-methoxyphenyl)-1-(6,7-difluoro-1H-indol-3-yl)-2-((3-(2-hydroxyethoxy)-5-methoxyphenyl)amino)ethanone] | 5800 nM | 3.1 nM |  |  | 
COc1cc(NC(C(=O)c2c[nH]c3cc(F)ccc23)c2ccc(Cl)cc2OC)cc(OCCO)c1 (single isomer, unassigned) [Compound 1B, 2-(4-chloro-2-methoxyphenyl)-1-(6-fluoro-1H-indol-3-yl)-2-((3-(2-hydroxyethoxy)-5-methoxyphenyl)amino)ethanone] |  |  |  | 6300 nM | 140 nM
COc1cc(NC(C(=O)c2c[nH]c3c(C)c(F)ccc23)c2ccc(Cl)cc2OC)cc(OCCO)c1 (single isomer, unassigned) [Compound 2B, 2-(4-chloro-2-methoxyphenyl)-1-(6-fluoro-7-methyl-1H-indol-3-yl)-2-((3-(2-hydroxyethoxy)-5-methoxyphenyl)amino)ethanone] |  |  |  | 6200 nM | 81 nM
COc1cc(NC(C(=O)c2c[nH]c3c(C)c(Cl)ccc23)c2ccc(Cl)cc2OC)cc(OCCO)c1 (single isomer, unassigned) [Compound 3B, 2-(4-chloro-2-methoxyphenyl)-1-(6-chloro-7-methyl-1H-indol-3-yl)-2-((3-(2-hydroxyethoxy)-5-methoxyphenyl)amino)ethanone] |  |  |  | 7100 nM | 45 nM
COc1cc(NC(C(=O)c2c[nH]c3cc(Cl)ccc23)c2ccc(Cl)cc2OC)cc(OCCO)c1 (single isomer, unassigned) [Compound 4B, 1-(6-chloro-1H-indol-3-yl)-2-(4-chloro-2-methoxyphenyl)-2-((3-(2-hydroxyethoxy)-5-methoxyphenyl)amino)ethanone] |  |  |  | 7400 nM | 45 nM
COc1cc(NC(C(=O)c2c[nH]c3cc(OC)ccc23)c2ccc(Cl)cc2OC)cc(OCCO)c1 (single isomer, unassigned) [Compound 5B, 2-(4-chloro-2-methoxyphenyl)-2-((3-(2-hydroxyethoxy)-5-methoxyphenyl)amino)-1-(6-methoxy-1H-indol-3-yl)ethanone] |  |  |  | 8100 nM | 400 nM
COc1cc(NC(C(=O)c2c[nH]c3cc(OC)c(C)cc23)c2ccc(Cl)cc2OC)cc(OCCO)c1 (single isomer, unassigned) [Compound 6B, 2-(4-chloro-2-methoxyphenyl)-2-((3-(2-hydroxyethoxy)-5-methoxyphenyl)amino)-1-(6-methoxy-5-methyl-1H-indol-3-yl)ethanone] |  |  |  | 5400 nM | 76 nM
COc1cc(NC(C(=O)c2c[nH]c3cc(OC)c(F)cc23)c2ccc(Cl)cc2OC)cc(OCCO)c1 (single isomer, unassigned) [Compound 7B, 2-(4-chloro-2-methoxyphenyl)-1-(5-fluoro-6-methoxy-1H-indol-3-yl)-2-((3-(2-hydroxyethoxy)-5-methoxyphenyl)amino)ethanone] |  |  |  | 7800 nM | 69 nM
COc1cc(NC(C(=O)c2c[nH]c3c(C)cc(F)cc23)c2ccc(Cl)cc2OC)cc(OCCO)c1 (single isomer, unassigned) [Compound 8B, 2-(4-chloro-2-methoxyphenyl)-1-(5-fluoro-7-methyl-1H-indol-3-yl)-2-((3-(2-hydroxyethoxy)-5-methoxyphenyl)amino)ethanone] |  |  |  | 5700 nM | 260 nM
COc1cc(NC(C(=O)c2c[nH]c3c(F)cc(C)cc23)c2ccc(Cl)cc2OC)cc(OCCO)c1 (single isomer, unassigned) [Compound 10B, 2-(4-chloro-2-methoxyphenyl)-1-(7-fluoro-5-methyl-1H-indol-3-yl)-2-((3-(2-hydroxyethoxy)-5-methoxyphenyl)amino)ethanone] |  |  |  | 3800 nM | 190 nM
COc1cc(NC(C(=O)c2c[nH]c3c(F)c(F)ccc23)c2ccc(Cl)cc2OC)cc(OCCO)c1 (single isomer, unassigned) [Compound 11A, 2-(4-chloro-2-methoxyphenyl)-1-(6,7-difluoro-1H-indol-3-yl)-2-((3-(2-hydroxyethoxy)-5-methoxyphenyl)amino)ethanone] | 6500 nM |  |  |  | 90 nM
COc1cc(NC(C(=O)c2c[nH]c3c(F)cc(C)cc23)c2ccc(Cl)cc2OC)cc(OCCO)c1 (stereo not drawn) [Compound 10, 2-(4-chloro-2-methoxyphenyl)-1-(7-fluoro-5-methyl-1H-indol-3-yl)-2-((3-(2-hydroxyethoxy)-5-methoxyphenyl)amino)ethanone] | 5800 nM | 7.5 nM |  |  | 
